In data set [1] the test system is RNA polymerase II Serine 5 phosphorylation in A549 cells overexpressing CDK7 mutant (C312S). As to the kind of experiment: Imaging-based cellular RNA PolII Ser5 phosphorylation assay in A549 cells overexpressing CDK7-mutant (C312S). The data set is classed as cell-based, human. As to conditions: for IC50: Homo sapiens, A549, A549 cells overexpressing CDK7 mutant (C312S), read-out: CDK7_ A549 mutant hCDK7(pIC50) (converted). In a few lines:
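A stably transduced A549 pool overexpressing CDK7 C312S, a mutant that blocks covalent binding at Cys312, while retaining endogenous wild-type CDK7 was used. Ser5 phosphorylation was measured by imaging, and IC50 values were derived.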

Data set [2] relates to RNA polymerase II Serine 5 phosphorylation (CDK7) in A549 cells.
Description: To evaluate inhibition of CDK7 kinase activity, a 384-well automated imaging assay was used. This assay detects Serine 5 phosphorylation on a unique heptapeptide sequence in the C-terminal domain of Rpb1 subunit of RNA polymerase II, the downstream substrate of CDK7. This heptapeptide sequence is repeated up to 52 times in the CTD of Rpb1.
RNA Polymerase II Serine 5 phosphorylation was detected using a specific rabbit Phospho-Rpb1 CTD (Ser5) antibody. A549 adenocarcinoma human alveolar basal epithelial cells were seeded in 20 μl medium (DMEM supplemented with 1% Fetal Bovine Serum (heat inactivated 30′ 56° C.), 2 mM L-glutamine, 50 U/ml penicillin 50 μg/ml streptomycin, 1 mM sodium pyruvate and 50 mM hepes) at 1000 cells/well and cultured in poly-D-lysine coated μclear 384 black plates for 20 hours at 37° C. and 5% CO2.
After incubation cells were challenged with compound for 3 hours at 37° C. and 5% CO2. DMSO was used as high control and as low control 10 μM of the following reference compound was used:
40 nl of test compounds and controls were spotted in cell plates using Echo Liquid Handler (Echo 550, Labcyte). Incubation was followed by 20 minutes fixation with 20 μl 10% formaldehyde at room temperature. Medium/formaldehyde solution was removed, plates were washed 3 times with 30 μl D-PBS (w/o Ca^2+ and Ma^2+) and permeabilization was done by adding 20 μl ice cold methanol for 20 minutes. Cells were washed again 3 times with 30 μl D-PBS and 20 μl blocking buffer (25 ml fetal bovine serum in 500 ml D-PBS) was added for 1 hour.
After removing blocking buffer 20 μl 1/1000 primary antibody rabbit Phospho-Rpb1 CTD (Ser5) antibody was added which binds to the phosphorylated Serine5 of the heptapeptide sequences in the CTD of Rpb1. […] Last, plates were washed 2 times with 30 μl D-PBS and wells were filled with 40 μL D-PBS, plates were sealed (Thermowell sealing tape) and stored at 4° C. until reading. Plates were read with Opera Phenix (Perkin Elmer) with 10× air objective. Data were calculated and analyzed in Phaedra.
IC50 values were calculated using the following formula
Average value of all HC's and all LC's are used for normalizations.
% Effect=100−(sample-LC)/(HC-LC)×100
% Control=(sample/HC)×100
From this an IC50 value can be obtained. An estimate of the slope of the plot in terms of the Hill coefficient is also obtained.
Data set [3] addresses CDK7/cyclinH/MAT1 trimeric complex (Homo sapiens (Human), UniProt P50613). The data set can be described thus: In vitro CDK7 assay, potency of irreversible covalent inhibitors (kinact/KI).
Setting [4] is: read-out: CDK7 (kinact, s^−1), Table B.
Setting [5] is: read-out: CDK7 (kinact/KI, M^−1*s^−1), Table B.
The mark [6] stands for this setting: CDK7 (20 nM enz.) (KI, μM), 20 nM enz.
Setting [7] is: read-out: CDK7 (20 nM enz.) (kinact, s^−1), 20 nM enz.
The mark [8] stands for this setting: read-out: CDK7 (20 nM enz.) (kinact/ KI, M^−1*s^−1), 20 nM enz.
[9] abbreviates: read-out: CDK7 (20 nM enz.) (kobs/[I], M^−1*s^−1), 20 nM enz.

SMILES strings stand for the structures. “And” between values parts separate entries of the source, which are not always exact repeats. Equal values may be shown once. Read-outs that look alike come from different tables or passages of the source.

CDK7/cyclinH/MAT1 trimeric complex, sequence (P50613 whole entry): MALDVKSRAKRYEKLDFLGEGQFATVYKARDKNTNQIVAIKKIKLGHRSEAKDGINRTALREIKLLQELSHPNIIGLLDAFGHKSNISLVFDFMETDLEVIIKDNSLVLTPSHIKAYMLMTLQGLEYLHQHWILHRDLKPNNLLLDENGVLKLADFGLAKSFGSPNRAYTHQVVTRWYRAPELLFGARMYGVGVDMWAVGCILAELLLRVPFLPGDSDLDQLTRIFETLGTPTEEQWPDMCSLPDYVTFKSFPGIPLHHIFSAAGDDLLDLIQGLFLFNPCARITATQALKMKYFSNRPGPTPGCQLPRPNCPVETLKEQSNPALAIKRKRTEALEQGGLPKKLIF
CDK7/cyclinH/MAT1 trimeric complex, sequence (P51946 whole entry partner): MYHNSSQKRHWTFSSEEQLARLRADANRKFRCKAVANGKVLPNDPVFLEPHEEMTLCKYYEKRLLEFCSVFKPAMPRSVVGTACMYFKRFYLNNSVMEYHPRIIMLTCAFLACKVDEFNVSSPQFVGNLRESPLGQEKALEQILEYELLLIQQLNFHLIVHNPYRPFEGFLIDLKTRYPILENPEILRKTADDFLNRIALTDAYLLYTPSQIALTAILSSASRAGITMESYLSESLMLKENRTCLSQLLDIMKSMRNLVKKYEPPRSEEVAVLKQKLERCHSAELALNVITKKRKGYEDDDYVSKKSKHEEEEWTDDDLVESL
CDK7/cyclinH/MAT1 trimeric complex, sequence (P51948 whole entry partner): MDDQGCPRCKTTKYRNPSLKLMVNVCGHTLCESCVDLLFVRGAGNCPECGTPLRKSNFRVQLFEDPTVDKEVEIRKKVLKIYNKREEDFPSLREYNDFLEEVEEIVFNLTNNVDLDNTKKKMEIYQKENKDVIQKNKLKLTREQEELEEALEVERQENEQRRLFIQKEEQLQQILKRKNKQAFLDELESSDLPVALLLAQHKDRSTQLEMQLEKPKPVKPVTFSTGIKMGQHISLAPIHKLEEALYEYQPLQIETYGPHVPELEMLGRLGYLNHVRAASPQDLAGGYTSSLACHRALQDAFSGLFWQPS

Compound `C=CC(=O)N1CC(N2CCCC(c3ccc4c(c3)Nc3ncnc(N5CCOCC5)c3CO4)C2)C1` (centres unmarked) [compound 35] displayed a melting point of 175 °C. Further, the IC50 in data set [1] was over 10000 nM. In data set [2], this compound had an IC50 of about 7940 nM. In data set [3] (CDK7 (KI(μM)), Table B), this compound displayed a Ki of 2.05 µM. Further, in data set [3] (setting [4]), the kinact amounted to 8.56e-05 s⁻¹. For the same compound, the kinact/KI in data set [3] (setting [5]) was found to be 41.8 M⁻¹ s⁻¹.
For the compound `C=CC(=O)N1CCC(N2CCC(c3cc(C)c4c(c3)Nc3ncnc(N5CCS(=O)(=O)CC5)c3CO4)CC2)CC1` [compound 88], the melting point is 256 °C. Moreover, the IC50 in data set [1] is 8130 nM. The IC50 in data set [2] is 34.7 nM. Besides, in data set [3] (setting [6]), the Ki was determined as 0.0485 µM. Also, the kinact in data set [3] (setting [7]) was found to be 4.48e-05 s⁻¹. Besides, the kinact/KI in data set [3] (setting [8]) was determined as 923 M⁻¹ s⁻¹.
For `C=CC(=O)N1CC(N2CCC(c3cc(Cl)c4c(c3)Nc3ncnc(N5CCS(=O)(=O)CC5)c3CO4)CC2)C1` [compound 43], the melting point is 296 °C. Besides, in data set [1], the IC50 is over 10000 nM. The same compound showed an IC50 in data set [2] of 132 nM. Also, in data set [3] (setting [9]), the kinact/KI is 1490 M⁻¹ s⁻¹.
As to `C=CC(=O)N1CC(N2CCN(c3cc4c(cn3)OCc3c(ncnc3N3CCOCC3)N4)CC2)C1` [compound 71], the melting point was determined as 256 °C. The IC50 in data set [1] was over 10000 nM. Further, the IC50 in data set [2] is 1350 nM. For the same compound, the Ki in data set [3] (setting [6]) was 3.2 µM. Besides, the kinact in data set [3] (setting [7]) came to 7.12e-05 s⁻¹. The kinact/KI in data set [3] (setting [8]) turned out to be 22.2 M⁻¹ s⁻¹.
`C=CC(=O)N1CC[C@@H](N2CCC(c3cc(C)c4c(c3)Nc3ncnc(N5CCS(=O)(=O)CC5)c3CO4)CC2)C1` (single isomer, unassigned) [compound 114] gave a melting point of 251 °C. The “CDK7_ A549 mutant hCDK7(pIC50)” value in data set [1] (A549 cells overexpressing CDK7 mutant (C312S)) is under 5. Moreover, the IC50 in data set [1] is about 10000 nM. Further, in data set [2], the IC50 is 51.3 nM and 28.2 nM. Besides, in data set [3] (20 nM enz.), the “CDK7 (20 nM enz.) (kinact, s^−1)” value was determined as 8.94e-05 s⁻¹ and the “CDK7 (20 nM enz.) (kinact/ KI, M^−1*s^−1)” value is 1318 M⁻¹ s⁻¹. Also, the Ki in data set [3] (setting [6]) was 0.0288 µM and 0.0678 µM. Further, in data set [3] (setting [7]), the kinact came to 4.67e-05 s⁻¹. Also, in data set [3] (setting [8]), the kinact/KI was found to be 1620 M⁻¹ s⁻¹.
On to `C=CC(=O)N1CC(C2CCN(c3ccc4c(c3)Nc3ncnc(N5CCOCC5)c3CO4)CC2)C1` [compound 7], for which the melting point is 234 °C. In data set [1], the IC50 was over 10000 nM. In addition, in data set [2], the IC50 is 6760 nM. The compound further had a Ki in data set [3] (CDK7 (KI(μM)), Table B) of 1.79 µM. For the same compound, the kinact in data set [3] (setting [4]) came to 0.000178 s⁻¹. For the same compound, the kinact/KI in data set [3] (setting [5]) was determined as 99.5 M⁻¹ s⁻¹.
`C=CC(=O)N1CC(N2CCC(c3ccc4c(c3)Nc3ncnc(N5CCOCC5)c3C(CC)O4)CC2)C1` (centres unmarked) [compound 66]: the melting point amounted to 118 °C. The IC50 in data set [1] was over 10000 nM. Also, in data set [2], the IC50 is 933 nM. Moreover, in data set [3] (setting [6]), the Ki amounted to 0.528 µM. Besides, in data set [3] (setting [7]), the kinact stood at 4.52e-05 s⁻¹. Further, the kinact/KI in data set [3] (setting [8]) was 85.5 M⁻¹ s⁻¹.
`C=CC(=O)N1CC(N2CCC(c3cc(Cl)c4c(c3)Nc3ncnc(N5CCOCC5)c3CO4)CC2)C1` [compound 42] displayed a melting point of over 300 °C. The IC50 in data set [1] was over 10000 nM. Moreover, the IC50 in data set [2] is 372 nM. The Ki in data set [3] (setting [6]) was determined as 0.0282 µM. Moreover, the kinact in data set [3] (setting [7]) amounted to 4.14e-05 s⁻¹. Besides, the kinact/KI in data set [3] (setting [8]) stood at 1460 M⁻¹ s⁻¹.
`C=CC(=O)N1CC(N2CCC(c3cc(C)c4c(c3)Nc3ncnc(N5CC(CO)C5)c3CO4)CC2)C1` [compound 107] displayed a melting point of 180 °C. For the same compound, in data set [1], the IC50 is over 10000 nM. Further, the IC50 in data set [2] is 3890 nM. The same compound came in with a Ki in data set [3] (setting [6]) of 0.96 µM. In addition, the kinact in data set [3] (setting [7]) came out at 5.21e-05 s⁻¹. Besides, the kinact/KI in data set [3] (setting [8]) was determined as 54.3 M⁻¹ s⁻¹.
Turning to `C=CC(=O)N1CC(N2CCC(c3cc(F)c4c(c3)Nc3ncnc(-c5cnn(C)c5)c3[C@H](C)O4)CC2)C1` (single isomer, unassigned) [compound 53], the melting point was 260 °C. Moreover, in data set [1], the IC50 is over 10000 nM. The same compound had an IC50 in data set [2] of over 10000 nM. Further, the kinact/KI in data set [3] (setting [9]) stood at 3.8 M⁻¹ s⁻¹.

The melting point is the temperature, or range, at which the solid turns liquid. Usually kinact stands for the rate constant of inactivation at saturating inhibitor.

Values taken from patent US20240109912A1, “TRICYCLIC PYRIMIDINES AS CYCLIN-DEPENDENT KINASE 7 (CDK7) INHIBITORS” (JANSSEN PHARMACEUTICA NV, priority 2020, published 2024).
